According to the supplement of paper PMC12137928:
Counter-ions that a name gives are not always drawn.

Columns and labels:
HCT116 [1] = details: 72 h
Procedure, shortened: (§1)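 Each well of the 1536-well plates received 250 HCT116 cells, which attached over 5 h. Luminescence was measured with CellTiter-Glo, scaled with vehicle as 0% and positive control as -100%, and pattern-corrected. A four-parameter Hill fit yielded IC50 and maximal efficacy.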

HCT116 [2] = assay: efficacy (maximum % inhibition of viability vs DMSO); higher = more cytotoxic; details: 72 h
Procedure, shortened: as §1

SMILES | IC50 cell viability (HCT116 [1]; ICRF193 0 nM) | IC50 cell viability (HCT116 [1]; ICRF193 200 nM) | efficacy (HCT116 [2]; ICRF193 200 nM) | efficacy (HCT116 [2]; ICRF193 0 nM)
O=C(CCCN1CCN(c2ccccn2)CC1)c1ccc(F)cc1 [Azaperone] | > 45.8 µM | 0.206 µM | 87.6% | –
Cn1cnc([N+](=O)[O-])c1Sc1ncnc2[nH]cnc12 [Azathioprine] | 2.91 µM | 3.66 µM | 85.9% | 77.4%
CN1CCCC(n2nc(Cc3ccc(Cl)cc3)c3ccccc3c2=O)CC1 (configuration not stated) [Azelastine hydrochloride] | > 45.8 µM | 29.1 µM | 65.4% | –
CC1=C(C(=O)OC(C)C)C(c2cccc([N+](=O)[O-])c2)C(C(=O)OC2CN(C(c3ccccc3)c3ccccc3)C2)=C(N)N1 (configuration not stated) [Azelnidipine] | 23.1 µM | 18.3 µM | 98% | 124%
CC[C@H]1OC(=O)[C@H](C)[C@@H](O[C@H]2C[C@@](C)(OC)[C@@H](O)[C@H](C)O2)[C@H](C)[C@@H](O[C@@H]2O[C@H](C)C[C@H](N(C)C)[C@H]2O)[C@](C)(O)C[C@@H](C)CN(C)[C@H](C)[C@@H](O)[C@]1(C)O [Azithromycin] | > 45.8 µM | 20.6 µM | 68.7% | –
CCCCCCCCCCCCC[N+](C)(C)Cc1ccccc1 [BENZALKONIUM CHLORIDE] | 20.6 µM | 23.1 µM | 124% | 133%
CC(C)C[C@H]1C(=O)N2CCC[C@H]2[C@]2(O)O[C@](NC(=O)[C@@H]3C=C4c5cccc6[nH]c(Br)c(c56)C[C@H]4N(C)C3)(C(C)C)C(=O)N12 [BROMOCRIPTINE] | > 45.8 µM | 18.3 µM | 43.2% | –
CCCC(=O)Nc1ncnc2c1ncn2[C@@H]1O[C@@H]2COP(=O)(O)O[C@H]2[C@H]1OC(=O)CCC [BUCLADESINE] | 25.9 µM | > 45.8 µM | – | 48.8%
Cc1c(-c2ccc(O)cc2)n(Cc2ccc(OCCN3CCCCCC3)cc2)c2ccc(O)cc12 [Bazedoxifene] | > 45.8 µM | 23.1 µM | 47.4% | –
C[C@H]1C[C@H]2[C@@H]3CCC4=CC(=O)C=C[C@]4(C)[C@@]3(Cl)[C@@H](O)C[C@]2(C)[C@@]1(O)C(=O)CO [Beclomethasone] | 23.1 µM | 20.6 µM | 86.6% | 84.6%
O=C(/C=C/c1cccc(S(=O)(=O)Nc2ccccc2)c1)NO [Belinostat] | 1.3 µM | 1.16 µM | 62.1% | 100%
NS(=O)(=O)c1cc2c(cc1C(F)(F)F)NC(Cc1ccccc1)NS2(=O)=O (configuration not stated) [Bendroflumethiazide] | > 45.8 µM | 0.92 µM | 68.8% | –
CCc1oc2ccccc2c1C(=O)c1cc(I)c(O)c(I)c1 [Benziodarone] | > 45.8 µM | 29.1 µM | 44.1% | –
O=C(Oc1cccc2cccnc12)c1ccccc1 [Benzoxiquine] | > 45.8 µM | 29.1 µM | 70.8% | –
NS(=O)(=O)c1cc2c(cc1Cl)N=C(CSCc1ccccc1)NS2(=O)=O [Benzthiazide] | > 45.8 µM | 29.1 µM | 77% | –
CCCCCCCCCCCCCCCC[N+](C)(C)Cc1ccccc1 [Benzylhexadecyldimethylammonium chloride] | 18.3 µM | 18.3 µM | 129% | 128%
CC(C)COCC(CN(Cc1ccccc1)c1ccccc1)N1CCCC1 (configuration not stated) [Bepridil] | 20.6 µM | 29.1 µM | 73.2% | 85.1%
COc1ccc2cc3[n+](cc2c1OC)CCc1cc2c(cc1-3)OCO2 [Berberine] | 23.1 µM | 10.3 µM | 56.1% | 50.1%
CC(C)NCC(O)COc1ccc(CCOCC2CC2)cc1 (configuration not stated) [Betaxolol HCl] | > 45.8 µM | 5.17 µM | 76.2% | –
CNCCCCOc1ccccc1Cc1ccccc1 [Bifemelane] | 20.6 µM | 14.6 µM | 49.6% | 40.6%
c1ccc(-c2ccc(C(c3ccccc3)n3ccnc3)cc2)cc1 (configuration not stated) [Bifonazole] | 25.9 µM | 16.4 µM | 75.2% | 75.7%
CC(=O)Oc1ccc(C(c2ccc(OC(C)=O)cc2)c2ccccn2)cc1 [Bisacodyl] | 2.06 µM | > 45.8 µM | – | 48.1%
CC(=O)Oc1ccc(C2(c3ccc(OC(C)=O)cc3)Oc3ccccc3NC2=O)cc1 [Bisoxatin acetate] | 14.6 µM | 20.6 µM | 89% | 66.7%
Oc1c(Cl)cc(Cl)cc1Sc1cc(Cl)cc(Cl)c1O [Bithionol] | 18.3 µM | 20.6 µM | 108% | 92.2%
CC(C)C[C@H](NC(=O)[C@H](Cc1ccccc1)NC(=O)c1cnccn1)B(O)O [Bortezomib] | 0.00517 µM | 0.00517 µM | 97.3% | 93.7%
COc1cc(Nc2c(C#N)cnc3cc(OCCCN4CCN(C)CC4)c(OC)cc23)c(Cl)cc1Cl [Bosutinib] | 29.1 µM | 18.3 µM | 132% | 106%
O=c1ccc2ccc(OCCCCN3CCN(c4cccc5sccc45)CC3)cc2[nH]1 [Brexpiprazole] | 18.3 µM | 20.6 µM | 106% | 102%
COc1cc(N2CCC(N3CCN(C)CC3)CC2)ccc1Nc1ncc(Cl)c(Nc2ccccc2P(C)(C)=O)n1 [Brigatinib] | 20.6 µM | 13 µM | 92.5% | 82.6%

SMILES | IC50 cell viability (HCT116 [1]; ICRF193 0 nM) | IC50 cell viability (HCT116 [1]; ICRF193 200 nM) | efficacy (HCT116 [2]; ICRF193 200 nM) | efficacy (HCT116 [2]; ICRF193 0 nM)
O=C(CCCN1CCC(O)(c2ccc(Br)cc2)CC1)c1ccc(F)cc1 [Bromperidol] | 18.3 µM | 20.6 µM | 55.1% | 44.8%
CC(C)(C)c1ccc(CN2CCN(C(c3ccccc3)c3ccc(Cl)cc3)CC2)cc1 (configuration not stated) [Buclizine HCl] | 20.6 µM | 20.6 µM | 59% | 42.9%
C[C@]12CC[C@H](O)C[C@H]1CC[C@@H]1[C@@H]2CC[C@]2(C)[C@@H](c3ccc(=O)oc3)C[C@H]3O[C@]132 [Bufogenin] | 4.61 µM | 4.61 µM | 84.6% | 71.3%
CCCCCCOc1ccc(C(=N)N(CCCC)CCCC)c2ccccc12 [Bunamidine hydrochloride] | 11.6 µM | 10.3 µM | 106% | 104%
Clc1ccc(CCC(Cn2ccnc2)Sc2c(Cl)cccc2Cl)cc1 (configuration not stated) [Butoconazole nitrate] | 20.6 µM | 25.9 µM | 93.9% | 96%
CC1=CC(=C(c2ccc(N)cc2)c2ccc(N)cc2)C=CC1=N [C.I. Basic Violet 14] | 10.3 µM | 5.17 µM | 92.3% | 98.1%
O=C(O)C1=C(CSc2nnnn2CS(=O)(=O)O)CS[C@@H]2[C@H](NC(=O)[C@H](O)c3ccccc3)C(=O)N12 [CEFONICID SODIUM] | > 45.8 µM | 6.51 µM | 85.2% | –
C=C1CC[C@H](O)C/C1=C/C=C1\CCC[C@]2(C)[C@@H]([C@H](C)CCCC(C)C)CC[C@@H]12 [CHOLECALCIFEROL] | 23.1 µM | 23.1 µM | 79.4% | 87.9%
CO[C@H]1C(=O)[C@]2(C)[C@@H](OC)C[C@H]3OC[C@@]3(OC(C)=O)[C@H]2[C@H](OC(=O)c2ccccc2)[C@]2(O)C[C@H](OC(=O)[C@H](O)[C@@H](NC(=O)OC(C)(C)C)c3ccccc3)C(C)=C1C2(C)C [Cabazitaxel] | > 45.8 µM | 0.0058 µM | 65.5% | –
COc1cc2nccc(Oc3ccc(NC(=O)C4(C(=O)Nc5ccc(F)cc5)CC4)cc3)c2cc1OC [Cabozantinib] | 20.6 µM | 16.4 µM | 69.8% | 58.4%
C=C1CC[C@H](O)C/C1=C/C=C1\CCC[C@]2(C)[C@@H]([C@H](C)CCCC(C)(C)O)CC[C@@H]12 [Calcifediol (monohydrate)] | > 45.8 µM | 23.1 µM | 42.8% | –
C=C1/C(=C\C=C2/CCC[C@]3(C)[C@@H]([C@H](C)/C=C/[C@@H](O)C4CC4)CC[C@@H]23)C[C@@H](O)C[C@@H]1O [Calcipotriene] | > 45.8 µM | 20.6 µM | 54% | –
CC(C)OC(=O)Nc1ccc2[nH]c(-c3cscn3)nc2c1 [Cambendazole] | 13 µM | 23.1 µM | 97.2% | 63%
CCOc1nc2cccc(C(=O)OC(C)OC(=O)OC3CCCCC3)c2n1Cc1ccc(-c2ccccc2-c2nn[nH]n2)cc1 (configuration not stated) [Candesartan cilexetil (Atacand)] | 20.6 µM | 29.1 µM | 100% | 93%
C=C(C)[C@@H]1CCC(C)=C[C@H]1c1c(O)cc(CCCCC)cc1O [Cannabidiol] | 20.6 µM | 23.1 µM | 49.4% | 52.9%
C[C@@]12C(=O)OC(=O)[C@]1(C)[C@H]1CC[C@@H]2O1 [Cantharidin] | 5.8 µM | 4.11 µM | 77.2% | 74.9%
CO[C@@H]1[C@@H](O[C@@H]2O[C@H](C)[C@@H](O[C@H]3C[C@@](C)(O)[C@@H](OC(=O)CC(C)C)[C@H](C)O3)[C@H](N(C)C)[C@H]2O)[C@@H](CC=O)C[C@@H](C)C(=O)/C=C/[C@@H]2O[C@H]2C[C@@H](C)OC(=O)C[C@H]1OC(C)=O [Carbomycin A] | 25.9 µM | 20.6 µM | 91.2% | 93%
CC(C)C[C@H](NC(=O)[C@H](CCc1ccccc1)NC(=O)CN1CCOCC1)C(=O)N[C@@H](Cc1ccccc1)C(=O)N[C@@H](CC(C)C)C(=O)[C@@]1(C)CO1 [Carfilzomib] | 0.0183 µM | 0.0164 µM | 89.7% | 86%
CCCCCCNC(=O)n1cc(F)c(=O)[nH]c1=O [Carmofur] | 10.3 µM | 8.2 µM | 92% | 87.1%
NC(=O)C1(N2CCCCC2)CCN(CCCN2c3ccccc3CCc3ccccc32)CC1 [Carpipramine Dihydrochloride] | 23.1 µM | 20.6 µM | 100% | 115%
COc1ccccc1OCCNCC(O)COc1cccc2[nH]c3ccccc3c12 (configuration not stated) [Carvedilol tartrate] | 20.6 µM | 29.1 µM | 102% | 96.8%
Cc1ccc(-c2cc(C(F)(F)F)nn2-c2ccc(S(N)(=O)=O)cc2)cc1 [Celecoxib] | 18.3 µM | 18.3 µM | 58.1% | 47.1%
CC(=O)OCC1=C(C(=O)O)N2C(=O)[C@@H](NC(=O)[C@H](N)c3ccccc3)[C@H]2SC1 [Cephaloglycin] | > 45.8 µM | 6.51 µM | 61.5% | –
COc1ccc2cc1Oc1ccc(cc1)C[C@H]1c3c(cc4c(c3Oc3cc5c(cc3OC)CCN(C)[C@@H]5C2)OCO4)CCN1C [Cepharanthine] | > 45.8 µM | 4.61 µM | 41.2% | –
Cc1cc(Nc2ncc(Cl)c(Nc3ccccc3S(=O)(=O)C(C)C)n2)c(OC(C)C)cc1C1CCNCC1 [Ceritinib] | 18.3 µM | 29.1 µM | 105% | 108%
COCc1c(C(C)C)nc(C(C)C)c(/C=C/[C@@H](O)C[C@@H](O)CC(=O)O)c1-c1ccc(F)cc1 [Cerivastatin sodium] | 1.03 µM | 0.92 µM | 102% | 106%
CCCCCCCCCCCCCCCC[n+]1ccccc1 [Cetylpyridinium bromide] | 2.59 µM | 2.59 µM | 90.4% | 90.6%
